Test results: patent US20200131196A1 (Mount Tam Therapeutics, Inc., priority 2017, published 2020)

Key:
[1] = test system: SW579; experiment: OncoPanel cell proliferation assay, SW579; assay type: cell-based, human
Experimental: (§1) Cells were grown in RPMI 1640, 10% FBS, 2 mM L-alanyl-L-glutamine, 1 mM Na pyruvate, or a special medium. Cells were seeded into 384-well plates and incubated in a humidified atmosphere of 5% CO2 at 37° C. Compounds were added the day following cell seeding. At the same time, a time zero untreated cell plate was generated. After a 3-day incubation period, cells were fixed and stained to allow fluorescence imaging of nuclei. Compounds (1 mM stock solutions) were serially diluted in half-log steps from the highest test concentration ([…]), and assayed over 10 concentrations with a maximum assay concentration of 0.1% DMSO. Automated fluorescence microscopy was carried out using a Molecular Devices ImageXpress Micro XL high-content imager, and images were collected with a 4× objective. 16-bit TIFF images were acquired and analyzed with MetaXpress 5.1.0.41 software.
(§2) Cell proliferation was measured by the fluorescence intensity of an incorporated nuclear dye. The output is referred to as the relative cell count, where the measured nuclear intensity is transformed to percent of control (POC) using the following formula: […]
(§3) Cellular response parameters were calculated using nonlinear regression to a sigmoidal single-site dose response model:
(§4) EC50 is the test compound concentration at the curve inflection point or half the effective response (parameter C of the fitted curve solution). GI50 is the concentration needed to reduce the observed growth by half (midway between the curve maximum and the time zero value). “Cell Count Activity Area” is an estimate of the integrated area above the curve (Barretina, et al. The Cancer Cell Line Encyclopedia enables predictive modelling of anticancer drug sensitivity. Nature 483: 603-607). […] In rare instances, values <0 or >10 may be observed. […] Curve-fitting, calculations, and report generation was performed using a custom data reduction engine and MathIQ based software (AIM).

[2] = test system: SK-N-AS; experiment: OncoPanel cell proliferation assay, SK-N-AS; assay type: cell-based, human
Experimental: as §1, §2, §3, §4

[3] = test system: SW684; experiment: OncoPanel cell proliferation assay, SW684; assay type: cell-based, human; details: Homo sapiens, read-out: Cell Count GI50
Experimental: as §1, with “Cells” for “Cells were grown in RPMI 1640, 10% FBS, 2 mM L-alanyl-L-glutamine, 1 mM Na pyruvate, or a special medium. Cells”
as §2, §3
(§5) GI50 is the concentration needed to reduce the observed growth by half (midway between the curve maximum and the time zero value). […] In rare instances, values <0 or >10 may be observed. […] Curve-fitting, calculations, and report generation was performed using a custom data reduction engine and MathIQ based software (AIM).

[4] = test system: AsPC-1; experiment: OncoPanel cell proliferation assay, AsPC-1; details: AsPC-1
Experimental: Cells were seeded into 384-well plates and incubated in a humidified atmosphere of 5% CO2 at 37° C. Compounds were added the day following cell seeding. At the same time, a time zero untreated cell plate was generated. After a 3-day incubation period, cells were fixed and stained to allow fluorescence imaging of nuclei. Compounds (1 mM stock solutions) were serially diluted in half-log steps from the highest test concentration (1 micromol), and assayed over 10 concentrations with a maximum assay concentration of 0.1% DMSO. Automated fluorescence microscopy was carried out using a Molecular Devices ImageXpress Micro XL high-content imager, and images were collected with a 4× objective. 16-bit TIFF images were acquired and analyzed with MetaXpress 5.1.0.41 software.

[5] = test system: DMS114; experiment: OncoPanel cell proliferation assay, DMS114; assay type: cell-based, human; details: Homo sapiens
Experimental: as §1, with “Cells” for “Cells were grown in RPMI 1640, 10% FBS, 2 mM L-alanyl-L-glutamine, 1 mM Na pyruvate, or a special medium. Cells”
as §2, §3, §5

[6] = test system: AGS; experiment: OncoPanel cell proliferation assay, AGS; assay type: cell-based, human
Experimental: as §1, §2, §3, §4

[7] = test system: RL95-2; experiment: OncoPanel cell proliferation assay, RL95-2; assay type: cell-based, human
Experimental: as §1, §2, §3, §4

[8] = test system: A388; experiment: OncoPanel cell proliferation assay, A388; assay type: cell-based, human
Experimental: as §1, with “Cells” for “Cells were grown in RPMI 1640, 10% FBS, 2 mM L-alanyl-L-glutamine, 1 mM Na pyruvate, or a special medium. Cells”
as §2, §3, §5

[9] = test system: NCI-H510A; experiment: OncoPanel cell proliferation assay, NCI-H510A; assay type: cell-based, human
Experimental: as §1, §2, §3, §4

[10] = test system: CML-T1; experiment: OncoPanel cell proliferation assay, CML-T1; assay type: cell-based, human
Experimental: as §1, §2, §3, §4

[11] = test system: NCIH446; experiment: OncoPanel cell proliferation assay, NCIH446; assay type: cell-based, human
Experimental: as §1, §2, §3, §4

[12] = test system: CaOV3; experiment: OncoPanel cell proliferation assay, CaOV3; assay type: cell-based, human
Experimental: as §1, §2, §3, §4

[13] = test system: U2OS; experiment: OncoPanel cell proliferation assay, U2OS; assay type: cell-based, human; details: Homo sapiens, read-out: Cell Count GI50
Experimental: as §1, with “Cells” for “Cells were grown in RPMI 1640, 10% FBS, 2 mM L-alanyl-L-glutamine, 1 mM Na pyruvate, or a special medium. Cells”
as §2, §3, §5

[14] = Homo sapiens, read-out: Cell Count EC50
[15] = Homo sapiens, read-out: Cell Count GI50

With `CN[C@@H]1C[C@H]2O[C@@](C)([C@@H]1OC)n1c3ccccc3c3c4c(c5c6ccccc6n2c5c31)C(=O)NC4` [Staurosporine, reference compound] the “Cell Count Activity Area” value [1] was 6.09, the EC50 [1, 14] was 0.52 nM and the GI50 [1, 15] was 0.506 nM. For the same compound, the “Cell Count Activity Area” value [2] was 4.83, the EC50 [2, 14] was 1.7 nM and the GI50 [2, 15] was 1.27 nM. The GI50 [3] was 0.95 nM, the “Cell Count Activity Area” value [4] was 3.28 and the EC50 ([5]; DMS-114, read-out: Cell Count EC50) was 21 nM. The GI50 ([5]; DMS-114, read-out: Cell Count GI50) was 3.35 nM, the “Cell Count Activity Area” value [6] was 6.19 and the GI50 [6, 15] was 0.926 nM. The IC50 ([6]; Homo sapiens, read-out: Cell Count IC50) was 1.21 nM, the “Cell Count Activity Area” value [7] was 3.87 and the GI50 [7, 15] was 6.83 nM. For the same compound, the “Cell Count Activity Area” value [8] was 4.99, the GI50 [8, 15] was 1.03 nM and the “Cell Count Activity Area” value [9] was 1.68. For the same compound, the EC50 [9, 14] was 39.8 nM, the GI50 [9, 15] was 56.5 nM and the “Cell Count Activity Area” value [10] was 4.13. For the same compound, the EC50 [10, 14] was 7.06 nM, the GI50 [10, 15] was 6.96 nM and the “Cell Count Activity Area” value [11] was 2.81. For the same compound, the EC50 ([11]; Homo sapiens, NCI-H446, read-out: Cell Count EC50) was 32.6 nM, the GI50 ([11]; Homo sapiens, NCI-H446, read-out: Cell Count GI50) was 16.8 nM and the “Cell Count Activity Area” value [12] was 5.31. For the same compound, the GI50 ([12]; Homo sapiens, Caov-3, read-out: Cell Count GI50) was 0.273 nM and the GI50 [13] was 2.63 nM.
